Holding throughout (test): DSF 100 kinase selectivity screen;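 also: compound tested at 20 µM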
Common to all, as to format: binding

Assay [1] concerns the target T1, ~100 representative kinases (Homo sapiens, UniProt Q9BRS2).
T1 construct: Recombinant protein kinase domains with a concentration of 2 μM
T1 sequence (Q9BRS2 1-568): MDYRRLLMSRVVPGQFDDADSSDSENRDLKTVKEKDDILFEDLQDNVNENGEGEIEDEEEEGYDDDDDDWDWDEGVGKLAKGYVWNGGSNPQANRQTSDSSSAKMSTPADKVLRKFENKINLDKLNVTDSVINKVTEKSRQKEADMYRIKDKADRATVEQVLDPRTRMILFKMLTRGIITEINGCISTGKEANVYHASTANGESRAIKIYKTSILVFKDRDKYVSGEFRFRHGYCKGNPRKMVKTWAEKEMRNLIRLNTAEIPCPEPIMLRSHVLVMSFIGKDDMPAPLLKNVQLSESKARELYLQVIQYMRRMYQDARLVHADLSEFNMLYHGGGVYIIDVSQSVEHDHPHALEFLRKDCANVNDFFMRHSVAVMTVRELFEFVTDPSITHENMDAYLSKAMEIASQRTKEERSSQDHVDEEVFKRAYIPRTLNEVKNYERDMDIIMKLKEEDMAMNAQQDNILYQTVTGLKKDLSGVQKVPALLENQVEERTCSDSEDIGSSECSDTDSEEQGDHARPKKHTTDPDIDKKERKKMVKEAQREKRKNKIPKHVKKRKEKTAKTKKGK
The following applies: Protein RIOK1; DSF; average of three replicates. Summed up: (§1)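 Each kinase domain, at 2 μM, is mixed with 20 μM test compound and SYPRO Orange in Hepes (20 mM, pH 7.5) with 500 mM NaCl. Temperature is then raised at 3°C/min and fluorescence-monitored unfolding yields the melting temperature change, ΔTm in degrees Celsius.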

The target in assay [2] is T2, ~100 representative kinases (Homo sapiens, UniProt O15164).
T2 construct: Recombinant protein kinase domains with a concentration of 2 μM
T2 sequence (O15164 1-1050): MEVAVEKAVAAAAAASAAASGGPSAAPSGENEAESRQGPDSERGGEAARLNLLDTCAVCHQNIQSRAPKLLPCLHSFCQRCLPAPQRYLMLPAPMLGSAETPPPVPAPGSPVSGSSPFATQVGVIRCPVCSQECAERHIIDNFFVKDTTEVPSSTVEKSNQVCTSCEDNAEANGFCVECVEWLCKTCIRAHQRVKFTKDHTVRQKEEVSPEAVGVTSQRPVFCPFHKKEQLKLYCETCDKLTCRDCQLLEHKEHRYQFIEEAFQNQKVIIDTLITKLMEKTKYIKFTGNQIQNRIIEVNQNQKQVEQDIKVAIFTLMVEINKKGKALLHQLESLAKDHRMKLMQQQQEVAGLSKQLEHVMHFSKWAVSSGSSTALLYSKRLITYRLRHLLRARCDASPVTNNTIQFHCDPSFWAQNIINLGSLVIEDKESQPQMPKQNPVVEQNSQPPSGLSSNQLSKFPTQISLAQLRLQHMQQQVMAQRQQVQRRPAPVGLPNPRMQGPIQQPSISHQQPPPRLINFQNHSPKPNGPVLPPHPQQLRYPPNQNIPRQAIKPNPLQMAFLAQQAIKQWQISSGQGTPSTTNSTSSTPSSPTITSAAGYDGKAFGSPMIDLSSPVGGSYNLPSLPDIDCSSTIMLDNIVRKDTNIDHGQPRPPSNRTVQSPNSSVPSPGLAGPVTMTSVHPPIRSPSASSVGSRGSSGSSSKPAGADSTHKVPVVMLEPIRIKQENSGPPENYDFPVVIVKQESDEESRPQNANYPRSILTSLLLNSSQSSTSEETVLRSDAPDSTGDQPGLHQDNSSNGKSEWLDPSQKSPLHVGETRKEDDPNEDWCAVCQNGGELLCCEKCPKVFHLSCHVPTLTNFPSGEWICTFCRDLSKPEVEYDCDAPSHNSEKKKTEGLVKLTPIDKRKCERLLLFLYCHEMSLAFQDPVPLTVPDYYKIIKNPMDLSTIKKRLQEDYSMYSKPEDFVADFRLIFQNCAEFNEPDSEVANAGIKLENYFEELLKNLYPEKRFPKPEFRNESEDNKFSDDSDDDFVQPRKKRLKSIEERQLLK
The following applies: Protein TIF1; DSF; average of three replicates. The essentials:
as §1

In assay [3] the target is T3, ~100 representative kinases (Homo sapiens, UniProt O75385).
T3 construct: Recombinant protein kinase domains with a concentration of 2 μM
T3 sequence (O75385 1-1050): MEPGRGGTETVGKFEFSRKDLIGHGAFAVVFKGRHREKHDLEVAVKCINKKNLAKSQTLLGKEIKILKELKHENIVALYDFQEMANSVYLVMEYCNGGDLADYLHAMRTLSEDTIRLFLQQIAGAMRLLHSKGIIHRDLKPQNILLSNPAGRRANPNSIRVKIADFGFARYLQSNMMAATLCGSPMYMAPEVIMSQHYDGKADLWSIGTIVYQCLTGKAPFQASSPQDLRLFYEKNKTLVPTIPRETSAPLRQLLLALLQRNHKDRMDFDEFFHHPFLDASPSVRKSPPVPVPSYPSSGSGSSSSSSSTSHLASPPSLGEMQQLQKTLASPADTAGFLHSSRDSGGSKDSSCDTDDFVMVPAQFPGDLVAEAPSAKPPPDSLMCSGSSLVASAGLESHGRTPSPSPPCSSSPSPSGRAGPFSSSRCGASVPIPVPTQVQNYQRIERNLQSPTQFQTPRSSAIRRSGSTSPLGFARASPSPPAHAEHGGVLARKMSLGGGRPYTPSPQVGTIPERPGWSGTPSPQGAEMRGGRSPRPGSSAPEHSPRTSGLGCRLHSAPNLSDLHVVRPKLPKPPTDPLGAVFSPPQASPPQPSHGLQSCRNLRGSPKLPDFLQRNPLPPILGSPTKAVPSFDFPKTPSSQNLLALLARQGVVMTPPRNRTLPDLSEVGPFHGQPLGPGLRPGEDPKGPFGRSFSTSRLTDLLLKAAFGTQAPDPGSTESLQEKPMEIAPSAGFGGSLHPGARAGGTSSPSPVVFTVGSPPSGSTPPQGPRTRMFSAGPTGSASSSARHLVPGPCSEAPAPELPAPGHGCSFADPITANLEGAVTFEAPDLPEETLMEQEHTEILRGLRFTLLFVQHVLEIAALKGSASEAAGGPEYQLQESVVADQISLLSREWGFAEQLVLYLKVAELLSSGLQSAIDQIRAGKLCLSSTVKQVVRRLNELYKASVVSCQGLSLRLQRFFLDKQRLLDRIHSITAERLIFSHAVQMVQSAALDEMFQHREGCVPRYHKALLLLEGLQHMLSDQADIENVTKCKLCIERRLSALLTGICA
The following applies: Protein ULK1; DSF; average of three replicates. Summed up: as §1

Results on 6 compounds are retold here after paper PMC12136037, “Type II kinase inhibitors that target Parkinson’s disease–associated LRRK2” (Science Advances, 2025).

Structures are written as SMILES.

As for `CCNc1nc(Nc2cc(F)c(C(=O)N3CCOCC3)cc2OC)ncc1C(F)(F)F` [GNE-7915], the dTm was -0.09 K in assay [1], -0.22 K in assay [2] and 1.06 K in assay [3].

`Cc1ccc(C(=O)Nc2ccc(CN3CCN(C)CC3)c(C(F)(F)F)c2)cc1C#Cc1cnc2[nH]ncc2c1` [GZD-824, reference compound]: the dTm in assay [1] is recorded as 2.49 K; in assay [2] it was 0.34 K; in assay [3], 6.60 K.

As for `Cc1ccc(C(=O)Nc2ccc(CN3CCN(C)CC3)c(C(F)(F)F)c2)cc1C#Cc1c[nH]c2ncnc(N3CCOCC3)c12` [Compound 1], the dTm in assay [1] is listed as 4.09 K; in assay [2], 0.45 K; in assay [3], 6.89 K.

In the case of `Cn1cc(-c2c[nH]c3ncnc(N4CCOCC4)c23)cc1C#N` [PFE-360], the dTm in assay [1] is on record as -0.58 K; in assay [2], 0.08 K; in assay [3], 1.48 K.

For the compound `Cc1ccc(C(=O)Nc2ccc(CN3CCN(C)CC3)c(C(F)(F)F)c2)cc1C#Cc1cnc2cccnn12` [Ponatinib, reference compound], the values for the dTm in assay [1] and in assay [2] were 1.86 K and 0.0214 K, respectively.

Turning to `C[C@@H]1CN(c2cc(-c3n[nH]c4ccc(OC5(C)CC5)cc34)ncn2)C[C@H](C)O1` [MLi2], the results for the dTm in assay [1], in assay [2] and in assay [3] were -1.66 K, 0.28 K and 0.01 K, respectively.
